Experiments:
Type in all cases: cell-based
[1] = tested on: thoracic aortic ring specimens of rat; assay: Rat aortic ring culture: angiogenesis promoting action (newly grown micro-vessels); conditions: for Number of micro-vessels: 7 days culture, mean ± SE, control 20 ± 2
Experimental: The test was conducted according to a report by Nicosia R. F. et al. (In Vitro Cell Dev Biol 26, 119-128, 1990). Briefly, thoracic aorta was removed from rat under ether anesthesia, and aortic rings were obtained by cross-sectioning at 1 mm intervals. The aortic rings were embedded into type I collagen gel (Koken Co.). Further, MCDB131 medium (Gibco BRL Co.) containing the Test Compound A was added to the upper layer, and the medium was exchanged every three days. After 7 days from the culture, micro-vessels newly grown from a cutting section of the aortic ring specimens were stained with alkaline phosphatase, then numbers of micro-vessels observed based on digital camera image were counted by using Scion Image (Scion Corp.). The statistical analysis was performed as follows: Data were analyzed using Dunnett's test with randamized block design. The difference between test compound groups and non-treated group were considered statistical significant at P<0.05.

[2] = tested on: human aortic endothelial cells; assay: Vascular endothelial cell migration (48 well micro chemotaxis chamber); conditions: for Number of Migration cell: 4 hours, mean ± SE, control 34 ± 8
Experimental: The test was conducted according to a report by Witzenbichler, B. et al. (J. Biol. Chem., 273, 18514-18521, 1998). Briefly, human aortic endothelial cells (Cambrex Corp.) were cultured in MCDB131 medium to confluent state. Cell migration was tested by using a 48 well micro chemotaxis chamber (Neuro Probe Inc.). The Test Compound A was added into the lower layer of a well, while cells, 1×10^4 cells per well, were added into the upper layer, and those were cultured for 4 hours. Cells were immobilized with methanol and cells in the upper layer of a filter were removed, and cells migrated on the filter were stained with Diff Quick (International Reagents Corp.), then numbers of migrated endothelial cells observed from digital camera image were counted by using Scion Image (Scion Corp.). The statistical analysis was performed as follows: Data were analyzed using Williams' test after linear regression analysis. The difference between test compound groups and non-treated group were considered statistical significant at P<0.05.

[3] = tested on: human aortic endothelial cells; assay: Luminalization (tube formation) of vascular endothelial cells in gel; conditions: for Length of formed tube (Pixel): third day, mean ± SE, control 13.3 ± 0.4
Experimental: The test was conducted according to a report by Yasunaga, C. et al. (Lab Invest, 1989; 61: 698-704). Briefly, human aortic endothelial cells (Cambrex Corp.) were cultured in MCDB131 medium to confluent state. Cells prepared with medium containing the Test Compound A, 5×10^4 cells/well, were added on cell matrix gel (Nitta Gelatin Co.) and cultured for 4 hours to adhere cells. After medium removal, gel was added to embed cells, and medium containing the drug was added on the upper layer, then length of the formed tube was measured on the third day based on digital camera image by using Scion Image (Scion Corp.). The statistical analysis was performed as follows: Data were analyzed using Williams' test after linear regression analysis. The difference between test compound groups and non-treated group were considered statistical significant at P<0.05.

[4] = dose dependent manner, compared with non-treated control group

## CCC(=O)Nc1c(C)cc(C(=O)N2CCC(N(C)CCc3ccccc3)CC2)cc1C [Test Compound A, 4-[N-methyl-N-(2-phenylethyl)amino]-1-(3,5-dimethyl-4-propionylaminobenzoyl)piperidine]
[1]; Concentration 6 (−Log M)
  Number of micro-vessels: 35 ± 4
[1]; Concentration 7 (−Log M)
  Number of micro-vessels: 33 ± 3
[1]; Concentration 8 (−Log M)
  Number of micro-vessels: 32 ± 4
[1]; Concentration 9 (−Log M)
  Number of micro-vessels: 27 ± 2
[1]; Concentration 10 (−Log M)
  Number of micro-vessels: 30 ± 3
[1]; Concentration 11 (−Log M)
  Number of micro-vessels: 22 ± 3
[1]; Concentration 12 (−Log M)
  Number of micro-vessels: 24 ± 3
[1]; [4]
  Effect on numbers of newly grown micro-vessels (in words): significantly increased numbers of newly grown micro-vessels
[2]; Concentration 8 (−Log M)
  Number of Migration cell: 64 ± 7
[2]; Concentration 9 (−Log M)
  Number of Migration cell: 64 ± 8
[2]; Concentration 10 (−Log M)
  Number of Migration cell: 49 ± 6
[2]; Concentration 11 (−Log M)
  Number of Migration cell: 42 ± 6
[2]; Concentration 12 (−Log M)
  Number of Migration cell: 41 ± 8
[2]; [4]
  Effect on numbers of migration cells (in words): significantly increased numbers of migration cells
[3]; Concentration 6 (−Log M)
  Length of formed tube (Pixel): 48.4 ± 5.3 Pixel
[3]; Concentration 7 (−Log M)
  Length of formed tube (Pixel): 32.2 ± 3.8 Pixel
[3]; Concentration 8 (−Log M)
  Length of formed tube (Pixel): 15.7 ± 0.9 Pixel
[3]; [4]
  Effect on length of formed tube (in words): significantly increased length of formed tube

From patent US8445516B2, “Pharmaceutical composition for promoting angiogenesis” (Otsuka Pharmaceutical Co., Ltd., priority 2004, dated 2013)
